Measured values: the NIST ThermoML archive (doi:10.1021/je500381c)
± gives the expanded uncertainty stated by the source.

Assay: xn = mol fraction of the nth substance listed
Settings: 100 kPa, Liquid; for mass density: Vibrating tube method

CCC12CC3CC(CC(C3)C1)C2 [1-ethyladamantane] + OCC1CCCCC1
Settings	mass density, 313.15 K [kg/m3]	mass density, 318.15 K [kg/m3]	mass density, 323.15 K [kg/m3]	mass density, 328.15 K [kg/m3]	mass density, 333.15 K [kg/m3]	viscosity, 313.15 K [mPa·s]	viscosity, 318.15 K [mPa·s]	viscosity, 323.15 K [mPa·s]	viscosity, 328.15 K [mPa·s]	viscosity, 333.15 K [mPa·s]
x2 = 0	–	919.21 ± 0.15	915.62 ± 0.15	912.01 ± 0.15	908.41 ± 0.15	3.878 ± 0.061	3.478 ± 0.055	3.134 ± 0.05	2.838 ± 0.045	2.581 ± 0.041
x2 = 0.1	–	917.79 ± 0.15	914.09 ± 0.15	910.38 ± 0.15	906.65 ± 0.15	3.897 ± 0.062	3.463 ± 0.055	3.094 ± 0.049	2.777 ± 0.044	2.507 ± 0.04
x2 = 0.2002	–	916.77 ± 0.15	913.03 ± 0.15	909.27 ± 0.15	905.5 ± 0.15	4.182 ± 0.066	3.688 ± 0.058	3.27 ± 0.052	2.915 ± 0.046	2.613 ± 0.041
x2 = 0.2997	–	915.95 ± 0.14	912.19 ± 0.14	908.41 ± 0.15	904.61 ± 0.15	4.542 ± 0.072	3.973 ± 0.063	3.497 ± 0.055	3.096 ± 0.049	2.756 ± 0.044
x2 = 0.3999	–	915.2 ± 0.14	911.42 ± 0.14	907.62 ± 0.14	903.81 ± 0.14	5.016 ± 0.079	4.35 ± 0.069	3.798 ± 0.06	3.338 ± 0.053	2.952 ± 0.047
x2 = 0.4998	918.29 ± 0.14	914.53 ± 0.14	910.75 ± 0.14	906.94 ± 0.14	903.1 ± 0.14	5.663 ± 0.089	4.857 ± 0.076	4.199 ± 0.066	3.657 ± 0.058	3.208 ± 0.051
x2 = 0.5989	917.71 ± 0.14	913.94 ± 0.14	910.15 ± 0.14	906.33 ± 0.14	902.49 ± 0.14	6.499 ± 0.1	5.504 ± 0.087	4.707 ± 0.074	4.059 ± 0.064	3.525 ± 0.055
x2 = 0.7001	917.19 ± 0.14	913.43 ± 0.14	909.63 ± 0.14	905.81 ± 0.14	901.96 ± 0.14	7.629 ± 0.12	6.374 ± 0.1	5.378 ± 0.084	4.581 ± 0.072	3.935 ± 0.062
x2 = 0.8023	916.67 ± 0.13	912.93 ± 0.13	909.16 ± 0.13	905.35 ± 0.14	901.5 ± 0.14	9.75 ± 0.15	8.051 ± 0.13	6.705 ± 0.11	5.629 ± 0.088	4.674 ± 0.073
x2 = 0.8996	916.12 ± 0.13	912.44 ± 0.13	908.7 ± 0.13	904.92 ± 0.13	901.1 ± 0.13	11.66 ± 0.18	9.556 ± 0.15	7.906 ± 0.12	6.508 ± 0.1	5.472 ± 0.086
